Measurements as given in patent publication US10183943B2, “Heterocyclic compounds and their use in preventing or treating bacterial infections” (MUTABILIS, priority 2015, dated 2019).
Structures can show the parent of a compound that is named as a salt.

Legend:
AmpC P. aeruginosa = AmpC P. aeruginosa (Pseudomonas aeruginosa, UniProt P24735); test: β-lactamase inhibitory activity, determination of IC50 (nitrocefin hydrolysis)
KPC-2 = target: T1, KPC-2 (Klebsiella pneumoniae, UniProt Q9F663); test: as above; assay type: biochemical; conditions: class (A); nitrocefin 200 μM, 30 min pre-incubation; read-out: IC50 β-lactamase KPC-2
T1 construct: made in house; host or cells: E. coli
T1 sequence (Q9F663 25-293 limits assumed): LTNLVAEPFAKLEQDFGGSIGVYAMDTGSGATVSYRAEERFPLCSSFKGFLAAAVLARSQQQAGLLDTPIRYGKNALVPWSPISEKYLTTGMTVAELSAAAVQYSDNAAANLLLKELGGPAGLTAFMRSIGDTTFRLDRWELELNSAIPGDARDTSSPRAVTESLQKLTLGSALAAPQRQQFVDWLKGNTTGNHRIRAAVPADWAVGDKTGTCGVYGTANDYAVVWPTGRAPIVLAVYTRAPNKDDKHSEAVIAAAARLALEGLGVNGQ

[1] = tested on: E. coli UFR41 (TEM-1, CTX-M-15, CMY-2, OXA-1, NDM-4); test: MIC of ceftazidime (CAZ) in combination with compounds at 4 μg/mL, broth microdilution; assay type: cell-based; conditions: strain UFR41; MIC of CAZ with compound fixed at 4 μg/mL
Procedure, shortened: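 Compounds were dissolved in DMSO and spotted onto plates. Log-phase cells were then added at 5×10^5 cfu/mL in cation-adjusted Mueller-Hinton broth, incubated 16-20 h at 35° C, and the MIC was scored visually as the lowest growth-inhibiting concentration.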

AmpC (P99) = AmpC (P99) (Enterobacter cloacae, UniProt P05364); test: β-lactamase inhibitory activity, determination of IC50 (nitrocefin hydrolysis)
Chain of AmpC (P99) (P05364 21-381): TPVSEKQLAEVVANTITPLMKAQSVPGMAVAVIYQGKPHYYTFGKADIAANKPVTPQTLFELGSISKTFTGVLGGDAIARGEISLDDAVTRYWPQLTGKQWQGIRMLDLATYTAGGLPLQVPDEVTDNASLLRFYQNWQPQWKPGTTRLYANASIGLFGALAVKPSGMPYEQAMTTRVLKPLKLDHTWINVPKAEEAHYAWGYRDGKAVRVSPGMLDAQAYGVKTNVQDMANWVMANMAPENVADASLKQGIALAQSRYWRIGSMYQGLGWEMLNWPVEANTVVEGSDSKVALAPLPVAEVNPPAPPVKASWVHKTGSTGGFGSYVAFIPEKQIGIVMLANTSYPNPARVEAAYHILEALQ

TEM-1 = target: T2, TEM-1 (Escherichia coli, UniProt P62593); test: as above; assay type: biochemical
T2 construct: made in house; host or cells: E. coli
T2 sequence (P62593 24-286 limits assumed): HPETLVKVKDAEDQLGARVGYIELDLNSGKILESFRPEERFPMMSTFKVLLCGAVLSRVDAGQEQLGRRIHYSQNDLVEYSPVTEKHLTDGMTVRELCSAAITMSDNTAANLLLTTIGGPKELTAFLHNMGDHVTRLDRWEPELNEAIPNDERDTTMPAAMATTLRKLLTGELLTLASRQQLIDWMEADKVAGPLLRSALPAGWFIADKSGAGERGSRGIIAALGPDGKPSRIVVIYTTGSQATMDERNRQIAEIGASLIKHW

SHV-1 = target: T3, SHV-1 (Klebsiella pneumoniae, UniProt P0AD64); test: as above; assay type: biochemical
T3 construct: made in house; host or cells: E. coli
T3 sequence (P0AD64 22-286): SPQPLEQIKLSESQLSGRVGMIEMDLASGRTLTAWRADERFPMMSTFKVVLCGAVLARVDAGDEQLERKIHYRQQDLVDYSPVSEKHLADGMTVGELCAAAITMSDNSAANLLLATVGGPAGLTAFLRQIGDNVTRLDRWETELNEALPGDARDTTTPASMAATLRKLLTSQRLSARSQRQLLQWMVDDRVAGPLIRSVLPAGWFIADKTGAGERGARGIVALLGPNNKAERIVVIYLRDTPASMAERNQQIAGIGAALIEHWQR

[2] = tested on: E. cloacae UFR70 (TEM-1, CTX-M-15, CMY-2, OXA-1, Porin loss); test: MIC of compounds alone, broth microdilution; assay type: cell-based; conditions: Enterobacter cloacae, read-out: MIC compounds of the invention alone
Procedure, shortened: (§1)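 MIC taken by visual inspection as lowest concentration with no growth, after 16-20 h at 35 °C in ambient air. Compounds tested alone from DMSO by CLSI broth microdilution; inoculum of log-phase cells at 5×10^5 cfu/mL in cation-adjusted Mueller-Hinton broth.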

[3] = tested on: K. pneumoniae UFR68 (TEM-1, SHV-11, CTX-M-15, KPC-3); test: MIC of compounds alone, broth microdilution; assay type: cell-based; conditions: Klebsiella pneumoniae, read-out: MIC compounds of the invention alone
Procedure, shortened: as §1

[4] = tested on: E. cloacae 260508 (TEM-1, CTX-M-15); test: MIC of compounds alone, broth microdilution; assay type: cell-based; conditions: Enterobacter cloacae, read-out: MIC compounds of the invention alone
Procedure, shortened: as §1

[5] = tested on: E. cloacae UFR51 (SHV-12, IMP-8); test: MIC of compounds alone, broth microdilution; assay type: cell-based; conditions: Enterobacter cloacae; strain UFR51 (E. cloacae); read-out: MIC compounds of the invention alone
Procedure, shortened: as §1

[6] = tested on: E. cloacae UFR85 (TEM-1, CTX-M-15, AmpC); test: MIC of compounds alone, broth microdilution; assay type: cell-based; conditions: Enterobacter cloacae, read-out: MIC compounds of the invention alone
Procedure, shortened: as §1

[7] = tested on: E. coli 190317 (TEM-1, SHV-12, CTX-M-15, OXA-1); test: MIC of compounds alone, broth microdilution; assay type: cell-based; conditions: Escherichia coli, read-out: MIC compounds of the invention alone
Procedure, shortened: as §1

Chain of AmpC P. aeruginosa (P24735 27-397): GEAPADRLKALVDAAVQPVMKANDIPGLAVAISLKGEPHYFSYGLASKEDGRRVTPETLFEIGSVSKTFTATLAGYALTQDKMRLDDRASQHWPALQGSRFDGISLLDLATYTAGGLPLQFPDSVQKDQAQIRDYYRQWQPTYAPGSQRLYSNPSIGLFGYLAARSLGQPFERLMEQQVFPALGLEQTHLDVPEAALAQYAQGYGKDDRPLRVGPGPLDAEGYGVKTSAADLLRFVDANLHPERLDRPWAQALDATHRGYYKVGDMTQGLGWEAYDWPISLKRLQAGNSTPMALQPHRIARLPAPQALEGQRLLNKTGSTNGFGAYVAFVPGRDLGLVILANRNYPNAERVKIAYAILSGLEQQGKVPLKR

Row | SMILES | IC50 (AmpC P. aeruginosa) [nM] | IC50 (KPC-2) [nM] | MIC combination of CAZ and compounds of the invention at 4 μg/mL [1] | IC50 (AmpC (P99)) [nM] | IC50 (TEM-1) [nM] | IC50 (SHV-1) [nM] | MIC [2] [µg/mL] | MIC [3] [µg/mL] | MIC [4] [µg/mL] | MIC [5] [µg/mL] | MIC [6] [µg/mL] | MIC [7] [µg/mL]
1 | O=C1N2CC=C(c3cnco3)C(C2)N1OS(=O)(=O)[O-].[Na+] (centres unmarked) [Example 3, Sodium [4-(oxazol-5-yl)-7-oxo-1,6-diazabicyclo[3.2.1]oct-3-en-6-yl]sulfate] | 2000 | 290 | >64 µg/mL | 770 | 3.4 | 6.9 | 8 | > 32 | 16 | 2 | > 32 | 
2 | Cn1cc(C2=CCN3CC2N(OS(=O)(=O)[O-])C3=O)cnc1=O.[Na+] (centres unmarked) [Example 15, Sodium [4-(N-methyl-2-oxo-pyrimidin-5-yl)-7-oxo-1,6-diazabicyclo[3.2.1]oct-3-en-6-yl] sulfate] | 3500 | 110 |  | 2000 | 9.9 | 12 | 8 | > 32 |  | 0.5 | > 32 | 
3 | Cn1ncc(C2=CCN3CC2N(OS(=O)(=O)[O-])C3=O)cc1=O.[Na+] (centres unmarked) [Example 19, Sodium [4-(1-methyl-6-oxo-pyridazin-4-yl)-7-oxo-1,6-diazabicyclo[3.2.1]oct-3-en-6-yl] sulfate] | 1800 | 46 | >64 µg/mL | 940 | 4 | 8.9 | 16 | > 32 |  | 4 | > 32 | 2
4 | O=C1N2CC(c3ncco3)=CC(C2)N1OS(=O)(=O)[O-].[Na+] (centres unmarked) [Example 25, Sodium [3-(oxazol-2-yl)-7-oxo-1,6-diazabicyclo[3.2.1]oct-3-en-6-yl]sulfate] | 97 | 30 | 0.25 µg/mL | 64 | 3.8 | 15 | 2 |  | 4 | 4 | 2 | 
5 | NCc1cnc(C2=CC3CN(C2)C(=O)N3OS(=O)(=O)O)s1 (centres unmarked) [Example 38, [3-[5-(aminomethyl)thiazol-2-yl]-7-oxo-1,6-diazabicyclo[3.2.1]oct-3-en-6-yl] hydrogen sulfate] | 320 | 19 | <=0.25 μg/mL | 31 | 0.7 | 4.3 |  |  | > 32 | 1 |  | 1
6 | O=C1N2CC(c3ncco3)=C[C@H](C2)N1OS(=O)(=O)[O-].[Na+] [Example 44, Sodium [(5R)-3-(oxazol-2-yl)-7-oxo-1,6-diazabicyclo[3.2.1]oct-3-en-6-yl] sulfate] | 75 | 11 | <0.25 µg/mL | 10 | 0.69 | 6 |  | 4 |  | 1 | 2 | 
